Results taken from patent US11648316B2, “Oral pharmaceutical composition containing pemetrexed and production method thereof” (ICURE BNP CO., LTD., priority 2017, dated 2023).
Like-named read-outs stand apart in the source and are kept apart here. Blank lines part the entries; values can stand above or below the molecule they belong to.

Columns and labels:
[1] = Artificial intestinal membrane permeability (PAMPA), Example 7; type: in vitro ADME; settings: PBS pH 6.8, pemetrexed 200 μg/ml, room temperature, 5 hr
Text: The intestinal membrane permeability of pemetrexed (PMX), the mixture of hydroxypropyl beta-cyclodextrin and pemetrexed (HP-beta CD/PMX), the mixture of hydroxypropyl beta-cyclodextrin and PMX/DCK ion-binding complex (HP-beta CD/PMX/DCK), the mixture of hydroxypropyl beta-cyclodextrin, PMX/DCK ion-binding complex and poloxamer (HP-beta CD/PMX/DCK/P188) prepared in Example 4, and the w/o/w nanoemulsion including the mixture of hydroxypropyl beta-cyclodextrin, PMX/DCK ion-binding complex and poloxamer (HP-beta CD/PMX/DCK/P188) prepared in Example 5 was evaluated using an artificial intestinal membrane (PAMPA; BD Biosciences, San Jose, Calif., USA).
Each sample was diluted with phosphate-buffered saline (PBS, pH 6.8) so that the concentration of pemetrexed was 200 μg/ml, and was then added in an amount of 200 μl to the donor compartment of each well of a PAMPA plate, each acceptor compartment thereof was added with 300 μl of phosphate-buffered saline (PBS, pH 6.8), and the donor compartment and the acceptor compartment were linked and then allowed to stand at room temperature for 5 hr, after which the sample was recovered from the donor compartment and the acceptor compartment of each well of the PAMPA plate and the concentration of the permeated drug was measured as follows. […]
The effective permeability (Pe) of each drug was calculated using the following equation. […]

[2] = system: Caco-2 cell monolayer membrane; assay: Intestinal cell membrane permeability, Caco-2 cell monolayer, Example 9; type: in vitro ADME; settings: Caco-2 monolayer, apical to basolateral, pemetrexed 200 μg/ml in HBSS, 37° C., up to 5 hr
Method: Caco-2 cells were treated at 3×10^5 cells in each well of a 12-well Transwell (pore size: 0.4 μm, surface area: 1.12 cm^2; Corning, N.Y., USA). Dulbecco's modified Eagles medium (DMEM; Lonza, Basel, Switzerland) containing 10% fetal bovine serum (FBS; Gibco™, Thermo Fisher Scientific) and 1% penicillin/streptomycin (Gibco™) was replaced every 48 hr for 21 days to 29 days, and a Caco-2 cell membrane having a transepithelial electrical resistance (TEER) of 350 Ωcm^2 or more was used for in-vitro intestinal cell membrane permeability tests.
Specifically, the culture medium was removed, culture was performed at 37° C. for 20 min with 0.5 ml of a Hanks' balanced salt solution (HESS), HBSS was removed, and each sample was diluted with HBSS so that the concentration of pemetrexed was 200 μg/ml, after which each sample thus diluted was added in an amount of 0.5 ml to the apical compartment of the Transwell, and the basolateral compartment of the Transwell was added with 1.5 ml of HBSS, followed by culturing at 37° C. After sample treatment, 100 μl of the sample was collected from the basolateral compartment of each well at 0.5, 1, 2, 3, 4 and 5 hr and then filtered with a membrane filter, after which the concentrations of PMX and the PMX/DCK ion-binding complex that permeated the intestinal cell membrane were measured using the same HPLC system as in Example 7. […]

[3] = In-vivo bioavailability of oral nanoemulsion in rats, Example 11; settings: rat
[4] = rat, in vivo, iv, 5 mg/kg
Method: (§1) Separately, in order to evaluate oral bioavailability, a solution of pemetrexed in distilled water was injected in an amount of 200 μl into rats through the tail vein thereof. Blood samples (200 μl) were collected at scheduled times after individual drug administrations and immediately mixed with 50 μl of a sodium citrate (3.8%) solution. The collected blood samples were centrifuged at 2,500×g and 4° C. for 15 min, pemetrexed in plasma was extracted using a solid-phase extraction (SPE) cartridge, and the concentration of pemetrexed was measured through liquid chromatography/mass spectrometry (LC/MS).
(§2) Each value represents mean±standard deviation (n=4 in each group).

in vivo = settings: rat
Method: as §1, §2

[5] = Artificial intestinal membrane permeability (PAMPA) of nanoemulsion with quercetin, Example 8; type: in vitro ADME; settings: PBS pH 6.8, quercetin 400 μg/ml, room temperature, 5 hr, analyte quercetin
Method: The intestinal membrane permeability of pemetrexed (PMX), quercetin and the w/o/w secondary nanoemulsions including the mixture of hydroxypropyl beta-cyclodextrin, PMX/DCK ion-binding complex and poloxamer (HP-beta CD/PMX/DCK/P188) prepared in Example 5 and quercetin was evaluated using an artificial intestinal membrane (PAMPA; BD Biosciences, San Jose, Calif., USA).
Each sample was diluted with phosphate-buffered saline (PBS, pH 6.8) so that the concentration of pemetrexed was 200 μg/ml and the concentration of quercetin was 400 μg/ml, and was then added in an amount of 200 μl to the donor compartment of each well of a PAMPA plate, each acceptor compartment thereof was added with 300 μl of phosphate-buffered saline (PBS, pH 6.8), and the donor compartment and the acceptor compartment were linked and then allowed to stand at room temperature for 5 hr, after which the sample was recovered from the donor compartment and the acceptor compartment of each well of the PAMPA plate, and the concentration of the permeated drug was measured as follows.
The concentrations of PMX and PMX/DCK were analyzed by introducing 20 μl of the sample into an HPLC system with a C18 column (4.6×250 mm, 5 μm, 100 □) and allowing a mixture of purified water (pH 3.2, adjusted with phosphoric acid) and acetonitrile at 80:20 (v/v) as a mobile phase to flow at a flow rate of 1.0 ml/min. […]

Permeability (effective permeability Pe of pemetrexed) [1]: 3.73 ± 1.15 ×10^−6, cm/s
Permeability (apparent permeation coefficient Papp) [2]: 0.50 ± 0.09 ×10^−6, cm/s
Bioavailability (oral, compared to intravenous injection) [3]: 12.0%
AUCinf ([3]; iv, 10 mg/kg): 29,390 ± 4,844 ng · h/ml
AUClast ([3]; iv, 10 mg/kg): 31,340 ± 5,342 ng · h/ml
Cmax ([3]; iv, 10 mg/kg): 32,220 ± 13,900 ng/ml
T1/2 ([3]; iv, 10 mg/kg): 0.57 ± 0.07 h
bioavailability ([3]; iv, 10 mg/kg): 100%
AUCinf ([3]; po, 20 mg/kg): 14,300 ± 2,272 ng · h/ml
AUClast ([3]; po, 20 mg/kg): 7,546±938 ng · h/ml
Cmax ([3]; po, 20 mg/kg): 1,487±332 ng/ml
Tmax ([3]; po, 20 mg/kg): 2.75 ± 3.50 h
half-life ([3]; po, 20 mg/kg): 7.55 ± 0.94 h
AUCinf [4]: 9,414.5 ± 4,223.6 ng · h/ml
AUClast [4]: 9,377.5 ± 4,169.4 ng · h/ml
Cmax [4]: 15,318 ± 6100.3 ng/ml
T1/2 [4]: 0.35 ± 0.08 h
bioavailability (in vivo): 1.49%
bioavailability (in vivo; iv, 5 mg/kg): 100%
AUC(0-inf) (in vivo; po, 50 mg/kg): 2560 ng·h/mL
AUC(0-t) (in vivo; po, 50 mg/kg): 1390 ng·h/mL
Cmax (in vivo; po, 50 mg/kg): 452 ± 221 ng/mL
Tmax (in vivo; po, 50 mg/kg): 0.83 ± 0.58 h
half-life (in vivo; po, 50 mg/kg): 6.06 ± 1.83 h
Structure (SMILES): Nc1nc2[nH]cc(CCc3ccc(C(=O)N[C@@H](CCC(=O)O)C(=O)O)cc3)c2c(=O)[nH]1 [PMX, Pemetrexed]

Permeability (effective permeability Pe of quercetin) [5]: 4.51 ± 5.10 ×10^−6, cm/s
Structure (SMILES): O=c1c(O)c(-c2ccc(O)c(O)c2)oc2cc(O)cc(O)c12 [Quercetin, quercetin]
